According to the RepoRT retention time repository (doi:10.1021/acs.analchem.1c00972):

Legend:
Conditions in all cases: stereoisomer not certain
[1] = RP, Phenomenex Synergi Polar-RP, 100 × 3 mm, 2.5 µm, 40 °C, 0.4 mL/min, estimated dead time 1.1 min; A: water + 1 mM ammonium fluoride; B: methanol + 1 mM ammonium fluoride; C: acetonitrile; D: 50% isopropanol + 50% acetone; gradient (min/%B/%C/%D) 0/5/0/0 2/5/0/0 8/95/0/0 12/80/15/0 19/25/70/0 19.5/0/25/70 21.5/0/25/70 22.5/0/25/0 23/5/0/0
[2] = RP, Waters ACQUITY UPLC BEH C18, 100 × 1 mm, 1.7 µm, 50 °C, 0.3 mL/min, estimated dead time 0.17 min; A: water + 10 mM ammonium bicarbonate; B: 10% water + 90% methanol + 10 mM ammonium bicarbonate; gradient (min/%B) 0/0 15/100 21/100 22/0 30/0
[3] = RP, Waters ACQUITY UPLC BEH C18, 100 × 1 mm, 1.7 µm, 50 °C, 0.3 mL/min, estimated dead time 0.17 min; A: water + 0.1% formic acid + 20 mM ammonium formate; B: methanol + 0.1% formic acid + 20 mM ammonium formate; gradient (min/%B) 0/0 15/100 21/100 22/0 30/0

| LC retention time [1] | LC retention time [3] | SMILES | LC retention time [2] |
| --- | --- | --- | --- |
| 9.42 min | 13.3 min | CCC(C)C(=O)OC1CC(O)C=C2C=CC(C)C(CCC(O)CC(O)CC(=O)O)C21 (centres undefined) [Pravastatin] | 12.1 min |
| 10.1 min | 17.2 min | CCCCCCCCCCCCc1ccccc1S(=O)(=O)O [Dodecylbenzenesulfonic acid] | 17.5 min |
| 9.29 min |  | CCCCC(=O)N(Cc1ccc(-c2ccccc2-c2nn[nH]n2)cc1)C(C(=O)O)C(C)C (centres undefined) [Valsartan] |  |
| 8.45 min |  | NS(=O)(=O)c1cc(C(=O)O)c(NCc2ccco2)cc1Cl [Furosemide] |  |
| 10.4 min |  | CC(C)c1c(C(=O)Nc2ccccc2)c(-c2ccccc2)c(-c2ccc(F)cc2)n1CCC(O)CC(O)CC(=O)O (centres undefined) [Atorvastatin] |  |
| 2.24 min |  | NC(=O)c1ccccc1C(=O)O [Phthalamic acid] |  |
| 8.42 min |  | CCc1cccc(C)c1N(C(=O)C(=O)O)C(C)COC (centres undefined) [Metolachlor OA] |  |
| 7 min |  | Oc1cccc2n[nH]nc12 [4-Hydroxybenzotriazole] |  |
| 10.3 min |  | O=c1c(-c2ccc(O)cc2)coc2cc(O)cc(O)c12 [Genistein] |  |
| 7.5 min |  | COCCN(C(=O)C(=O)O)c1c(C)cccc1C [Dimethachlor OA] |  |
| 16.2 min |  | O=C(c1ccc(OCCN2CCCCC2)cc1)c1c(-c2ccc(O)cc2)sc2cc(O)ccc12 [Raloxifene] |  |
| 6.31 min |  | O=S(=O)(O)c1nc2ccccc2s1 [2-Benzothiazolesulfonic acid] |  |
| 1.82 min |  | O=C(O)Cc1ccc(S(=O)(=O)O)cc1 [(4-Sulfophenyl)acetic acid] |  |
| 7.88 min |  | COCCN(C(=O)CS(=O)(=O)O)c1c(C)cccc1C [Dimethachlor ESA] |  |
| 9.89 min |  | O=c1c(-c2ccc(O)cc2)coc2cc(O)ccc12 [Daidzein] |  |
| 11.9 min |  | CC(C)(O)c1ccccc1CCC(SCC1(CC(=O)O)CC1)c1cccc(C=Cc2ccc3ccc(Cl)cc3n2)c1 (centres undefined) [Montelukast] | 16.6 min |
| 10.3 min | 14.1 min | CC(C)Cc1ccc(C(C)C(=O)O)cc1 (centres undefined) [Ibuprofen] |  |
| 7.83 min |  | Cc1cccc(C)c1N(Cn1cccn1)C(=O)CS(=O)(=O)O [Metazachlor ESA] |  |

| LC retention time [1] | LC retention time [3] | SMILES | LC retention time [2] |
| --- | --- | --- | --- |
| 11.1 min |  | Cc1ccc(-c2cc(C(F)(F)F)nn2-c2ccc(S(N)(=O)=O)cc2)cc1 [Celecoxib] |  |
| 8.32 min |  | COc1cc(O)c(C(=O)c2ccccc2)cc1S(=O)(=O)O [Benzophenone-4] |  |
| 10.3 min |  | COc1c(C)c2c(c(O)c1CC=C(C)CCC(=O)O)C(=O)OC2 [Mycophenolic acid] |  |
| 10.6 min |  | Cc1cccc(Nc2ccccc2C(=O)O)c1C [Mefenamic acid] |  |
| 10.6 min |  | CCCCOC(=O)c1ccc(O)cc1 [Butylparaben] | 14 min |
| 8.57 min |  | CC(C)(Oc1ccc(Cl)cc1)C(=O)O [Clofibric acid] |  |
| 10.3 min | 18.3 min | CC(C)(c1ccc(O)cc1)c1ccc(O)cc1 [Bisphenol A] |  |
| 11.3 min |  | CCC1=C(C)CN(C(=O)NCCc2ccc(S(=O)(=O)NC(=O)NC3CCC(C)CC3)cc2)C1=O (centres undefined) [Glimepiride] |  |
| 9.75 min |  | CC(C(=O)O)c1cccc(C(=O)c2ccccc2)c1 (centres undefined) [Ketoprofen] |  |
| 8.57 min |  | CCc1cccc(C)c1N(C(=O)CS(=O)(=O)O)C(C)COC (centres undefined) [Metolachlor ESA] | 12.1 min |
| 11.2 min |  | CCOC(=O)C1=C(C)NC(C)=C(C(=O)OC)C1c1cccc([N+](=O)[O-])c1 (centres undefined) [Nitrendipin] |  |
| 10.1 min |  | O=C(O)Cc1ccccc1Nc1c(Cl)cccc1Cl [Diclofenac] |  |
| 9.33 min |  | CC(C)(Oc1ccc(CCNC(=O)c2ccc(Cl)cc2)cc1)C(=O)O [Bezafibrate] |  |
| 7.44 min |  | O=S(=O)(O)c1ccc2nc(-c3ccccc3)[nH]c2c1 [Phenylbenzimidazole sulfonic acid] |  |
| 9.49 min |  | CCCCc1nc(Cl)c(CO)n1Cc1ccc(-c2ccccc2-c2nn[nH]n2)cc1 [Losartan] |  |
| 1.65 min |  | O=S(=O)(O)c1ccc2ccc(S(=O)(=O)O)cc2c1 [27-Naphthalenedisulfonic acid] |  |
| 10.5 min | 15.4 min | COc1ccc2c(c1)c(CC(=O)O)c(C)n2C(=O)c1ccc(Cl)cc1 [Indometacin] |  |
| 11.3 min |  | O=C(Nc1ccc(Cl)cc1)Nc1ccc(Cl)c(Cl)c1 [Triclocarban] |  |

More lines, now with the values behind:

| SMILES | LC retention time [1] | LC retention time [3] | LC retention time [2] |
| --- | --- | --- | --- |
| Oc1c(Br)cc(Cl)cc1Cc1cc(Cl)cc(Br)c1O [Bromochlorophen] | 11.2 min | 17.3 min | 16.4 min |
| O=S(=O)(O)C(F)(F)C(F)(F)C(F)(F)C(F)(F)C(F)(F)C(F)(F)C(F)(F)C(F)(F)F [Perfluorooctanesulfonic acid] | 9.25 min |  | 15.5 min |
| N#Cc1cc(Br)c(O)c(Br)c1 [Bromoxynil] | 8.68 min |  |  |
| CC(Oc1ccc(Cl)cc1Cl)C(=O)O (centres undefined) [Dichlorprop] | 8.48 min | 14 min | 11.8 min |
| CC1=CC(=O)NS(=O)(=O)O1 [Acesulfame] | 2.11 min | 2.66 min | 2.41 min |
| CC(O)(CS(=O)(=O)c1ccc(F)cc1)C(=O)Nc1ccc(C#N)c(C(F)(F)F)c1 (centres undefined) [Bicalutamide] | 10.7 min |  |  |
| O=c1cc[nH]c(=S)[nH]1 [2-thiouracil] | 2.53 min |  |  |
| CCCc1cc(=O)[nH]c(=S)[nH]1 [6-Propyl-2-thiouracil] | 8.14 min | 7.69 min |  |
| OCC1OC(OC2(CCl)OC(CCl)C(O)C2O)C(O)C(O)C1Cl (centres undefined) [Sucralose] | 8 min |  |  |
| Oc1ccc(Cl)cc1Cc1ccccc1 [Chlorophene] | 11.2 min |  | 15.9 min |
| O=[N+]([O-])c1ccc(O)c([N+](=O)[O-])c1 [24-Dinitrophenol] | 7.62 min |  |  |
| CC(C)N1C(=O)c2ccccc2NS1(=O)=O [Bentazone] | 7.2 min | 11.5 min | 7.66 min |
| CCCC1CC(C(=O)NC(C(C)O)C2OC(SC)C(O)C(O)C2O)N(C)C1 (centres undefined) [Lincomycin] | 9.98 min |  |  |
| Oc1ccccc1-c1ccccc1 [2-Phenylphenol] | 9.93 min |  | 13.9 min |
| CC(C)(c1ccccc1)c1ccc(O)cc1 [4-Cumylphenol] | 11.1 min |  | 15.7 min |
| N#Cc1nn(-c2c(Cl)cc(C(F)(F)F)cc2Cl)c(N)c1S(=O)C(F)(F)F (centres undefined) [Fipronil] | 10.9 min |  |  |
| O=S(=O)(O)CCC(F)(F)C(F)(F)C(F)(F)C(F)(F)C(F)(F)C(F)(F)F [6-2fluorotelomer sulfonic acid] | 8.97 min |  |  |
| CS(=O)(=O)c1ccc(C(=O)C2C(=O)CCCC2=O)c(Cl)c1 [Sulcotrione] | 7.69 min |  |  |
| Nc1ccc(S(=O)(=O)O)c(N)c1 [24-diaminobenzenesulfonic acid] | 1.48 min |  |  |
| Oc1ccc(Cc2ccc(O)cc2)cc1 [Bisphenol F] | 9.94 min |  | 11.9 min |

| SMILES | LC retention time [1] | LC retention time [3] | LC retention time [2] |
| --- | --- | --- | --- |
| O=S(=O)(c1ccc(O)cc1)c1ccc(O)cc1 [Bisphenol S] | 9.36 min |  |  |
| O=c1[nH]cc(F)c(=O)[nH]1 [5-Fluorouracil] | 2.09 min | 7.72 min |  |
| Oc1cc(Cl)ccc1Oc1ccc(Cl)cc1Cl [Triclosan] | 11.5 min |  |  |
| O=C(NC(=O)c1c(F)cccc1F)Nc1ccc(Oc2ccc(C(F)(F)F)cc2Cl)cc1F [Flufenoxuron] | 11.9 min |  |  |
| O=c1[nH]c(Cl)c(Cl)cc1Cl [356-Trichloro-2-pyridinol] | 9.23 min |  |  |
| Nc1nc2c(ncn2COCCO)c(=O)[nH]1 [Acyclovir] | 3.17 min |  |  |
| CCC(=O)Nc1ccc(Cl)c(Cl)c1 [Propanil] | 10.6 min |  |  |
| S=c1nc[nH]c2nc[nH]c12 [6-Mercaptopurine] | 3.32 min |  |  |
| Cc1ccc(C(C)C)c(O)c1 [Thymol] | 10.6 min |  | 14.7 min |
| O=c1[nH]c(=O)c2cn[nH]c2[nH]1 [Oxypurinol] | 2.44 min |  |  |
| Oc1cc(Cl)c(Cl)c(Cl)c1 [345-trichlorophenol] | 10.8 min |  |  |
| O=C(O)COc1ccc(Cl)cc1Cl [24-Dichlorophenoxyacetic acid] | 8.06 min |  |  |
| CCCCCCCCCc1ccc(O)cc1 [4-n-Nonylphenol] | 11.6 min |  | 18.1 min |
| O=C1CN(N=Cc2ccc([N+](=O)[O-])o2)C(=O)N1 [Nitrofurantoin] | 8.69 min |  |  |
| Cc1cc(Cl)ccc1OCC(=O)O [MCPA] | 8.16 min |  |  |
| Cc1cc(Cl)ccc1OC(C)C(=O)O (centres undefined) [Mecoprop] | 8.57 min |  |  |
| Cc1cc(O)ccc1Cl [p-Chlorocresol] | 8.57 min |  | 13 min |
| Oc1ccc(Cl)cc1Cl [24-Dichlorophenol] | 8.49 min |  |  |
| Oc1ccc(Cl)cc1 [4-Chlorophenol] | 8.39 min |  | 11.3 min |
